Tests used:
[1] = test system: Abutilon theophrasti; assay: Pre-emergence herbicidal action, ABUTH; type: in vivo; conditions: for Herbicidal efficacy against ABUTH: Table K; for herbicidal activity ABUTH: scored visually after 3 weeks vs untreated controls
Procedure, shortened: (§1)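 Percent herbicidal activity rated by eye 3 weeks after pre-emergence soil-surface application, compared with untreated pots. Seeds sat under sandy loam; sprays carried 0.2% wetting agent.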

[2] = test system: Alopecurus myosuroides; assay: Pre-emergence herbicidal action, ALOMY; type: in vivo
Procedure, shortened: as §1

[3] = test system: Amaranthus retroflexus; assay: Pre-emergence herbicidal action, AMARE; type: in vivo; conditions: dosage 320 g/ha, scored visually after 3 weeks vs untreated controls
Procedure, shortened: as §1

[4] = test system: Avena fatua; assay: Pre-emergence herbicidal action, AVEFA; type: in vivo; conditions: for herbicidal activity AVEFA: dosage 320 g/ha, scored visually after 3 weeks vs untreated controls
Procedure, shortened: as §1

[5] = test system: Cyperus serotinus; assay: Pre-emergence herbicidal action, CYPES; type: in vivo
Procedure, shortened: as §1

[6] = test system: Matricaria inodora; assay: Pre-emergence herbicidal action, MATIN; type: in vivo; conditions: for Herbicidal efficacy against MATIN: Table K; for herbicidal activity MATIN: scored visually after 3 weeks vs untreated controls
Procedure, shortened: as §1

[7] = test system: Polygonum convolvulus; assay: Pre-emergence herbicidal action, POLCO; type: in vivo; conditions: Table K
Excerpt: 1. Pre-Emergence Herbicidal Action Against Harmful Plants Seeds of monocotyledonous and dicotyledonous weed plants and crop plants are laid out in sandy loam soil in wood-fiber pots and covered with soil. The compounds of the invention, formulated in the form of wettable powders (WP) or as emulsion concentrates (EC), are then applied to the surface of the covering soil in the form of an aqueous suspension or emulsion at a water application rate equating to […], with addition of 0.2% wetting agent. After the treatment, the pots are placed in a greenhouse and kept under good growth conditions for the trial plants. The damage to the test plants is scored visually after a test period of 3 weeks by comparison with untreated controls (herbicidal activity in percent (%): 100% activity=the plants have died, 0% activity=like control plants).
For comparison, the herbicidal activity of numerous compounds according to the invention was tested with the structurally closest compounds known from the documents WO 2011/035874, WO 2012/028579 and WO 2012/126932, by the pre- and post-emergence method.

[8] = test system: Setaria viridis; assay: Pre-emergence herbicidal action, SETVI; type: in vivo; conditions: for herbicidal activity SETVI: dosage 320 g/ha, scored visually after 3 weeks vs untreated controls
Procedure, shortened: as §1

[9] = test system: Stellaria media; assay: Pre-emergence herbicidal action, STEME; type: in vivo; conditions: dosage 320 g/ha, scored visually after 3 weeks vs untreated controls
Procedure, shortened: as §1

[10] = test system: Viola tricolor; assay: Pre-emergence herbicidal action, VIOTR; type: in vivo; conditions: for Herbicidal efficacy against VIOTR: Table K; for herbicidal activity VIOTR: scored visually after 3 weeks vs untreated controls
Procedure, shortened: as §1

[11] = test system: Abutilon theophrasti; assay: Post-emergence herbicidal action, ABUTH; type: in vivo; conditions: 80 g/ha, Table D
Procedure, shortened: (§2)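 Visual percent activity relative to untreated controls, assessed about 3 weeks after foliar treatment, where 0% equals control growth and 100% equals death. Compounds, as wettable powders or emulsion concentrates, are sprayed onto one-leaf-stage plants in sandy loam.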

[12] = test system: Alopecurus myosuroides; assay: Post-emergence herbicidal action, ALOMY; type: in vivo; conditions: for herbicidal activity ALOMY: 80 g/ha, Table C
Procedure, shortened: as §2

[13] = test system: Amaranthus retroflexus; assay: Post-emergence herbicidal action, AMARE; type: in vivo; conditions: 80 g/ha, Table D
Procedure, shortened: as §2

[14] = test system: Avena fatua; assay: Post-emergence herbicidal action, AVEFA; type: in vivo
Procedure, shortened: as §2

[15] = test system: Pharbitis purpureum; assay: Post-emergence herbicidal action, PHBPU; type: in vivo; conditions: 80 g/ha, Table D
Procedure, shortened: as §2

[16] = test system: Setaria viridis; assay: Post-emergence herbicidal action, SETVI; type: in vivo; conditions: for herbicidal activity SETVI: 80 g/ha, Table C
Procedure, shortened: as §2

[17] = test system: Stellaria media; assay: Post-emergence herbicidal action, STEME; type: in vivo; conditions: for Herbicidal activity STEME: 80 g/ha, Table D
Procedure, shortened: as §2

[18] = test system: Viola tricolor; assay: Post-emergence herbicidal action, VIOTR; type: in vivo; conditions: for herbicidal activity VIOTR: 80 g/ha, Table D
Procedure, shortened: as §2

[19] = test system: ECHCG; assay: Post-emergence herbicidal action, ECHCG; type: in vivo; conditions: 80 g/ha, Table C
Procedure, shortened: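 Weed and crop plants grown in sandy loam in the greenhouse, treated at the one-leaf stage 2–3 weeks after sowing. Damage scored visually after about 3 weeks vs untreated controls (0% = control, 100% = dead).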

[20] = test system: ECHCG; assay: Pre-emergence herbicidal action, ECHCG; type: in vivo, Echinochloa crus-galli
[21] = dosage 320 g/ha, scored visually after 3 weeks vs untreated controls

Row | SMILES | Herbicidal efficacy against ABUTH ([1]; dosage 80 g/ha) | herbicidal activity ABUTH ([1]; dosage 320 g/ha) | herbicidal activity AMARE [3] | Herbicidal efficacy against AVEFA ([4]; 80 g/ha) | herbicidal activity AVEFA [4] | Herbicidal efficacy against CYPES ([5]; 80 g/ha) | herbicidal activity MATIN ([6]; dosage 320 g/ha) | Herbicidal efficacy against POLCO ([7]; dosage 80 g/ha) | herbicidal activity SETVI [8] | Herbicidal activity STEME [9] | Herbicidal efficacy against VIOTR ([10]; dosage 80 g/ha) | herbicidal activity VIOTR ([10]; dosage 320 g/ha) | herbicidal activity ABUTH [11] | herbicidal activity ALOMY [12] | herbicidal activity AMARE [13] | Herbicidal activity PHBPU [15] | herbicidal activity SETVI [16] | Herbicidal activity STEME [17] | herbicidal activity VIOTR [18] | Herbicidal activity ECHCG [19] | other results
1 | CSc1c(C(F)F)ccc(C(=O)Nc2ncnn2C)c1C [Example 4-1, 4-(difluoromethyl)-2-methyl-3-(methylsulfanyl)-N-(1-methyl-1H-1,2,4-triazol-5-yl)benzamide] | 90 | 100% | 100% | 30 | 80% | 30 | 90% | 30 | 100% | 90% | 100 | 100% | 100% | 80% | 100% | 100% | 100% | 100% | 100% | 90% | Herbicidal efficacy against ABUTH ([1]; dosage 320 g/ha): 100; Herbicidal efficacy against ALOMY ([2]; 320 g/ha): 40; Herbicidal efficacy against AVEFA ([4]; 320 g/ha): 80; Herbicidal efficacy against CYPES ([5]; 320 g/ha): 50; Herbicidal efficacy against MATIN ([6]; dosage 80 g/ha): 80; Herbicidal efficacy against MATIN ([6]; dosage 320 g/ha): 90; Herbicidal efficacy against POLCO ([7]; dosage 320 g/ha): 30; Herbicidal efficacy against SETVI ([8]; 80 g/ha): 80; Herbicidal efficacy against SETVI ([8]; 320 g/ha): 100; Herbicidal efficacy against VIOTR ([10]; dosage 320 g/ha): 100; Herbicidal efficacy against ALOMY ([12]; 20 g/ha): 70; Herbicidal efficacy against AVEFA ([14]; 20 g/ha): 20; Herbicidal efficacy against SETVI ([16]; 20 g/ha): 60; Herbicidal efficacy against STEME ([17]; 20 g/ha): 80; Herbicidal efficacy against VIOTR ([18]; 20 g/ha): 100; Herbicidal efficacy against ECHCG ([20]; 80 g/ha): 70; Herbicidal efficacy against ECHCG ([20]; 320 g/ha): 100
2 | CSc1c(C(F)F)ccc(C(=O)Nc2nnnn2C)c1Cl [Example 1-49] | 100 | 100% | 100% | 80 | 100% | 70 | 100% | 50 | 100% | 90% | 100 | 100% | 90% | 90% | 80% | 90% | 90% | 100% | 100% | 80% | Herbicidal efficacy against ABUTH ([1]; dosage 20 g/ha): 70; Herbicidal efficacy against ALOMY ([2]; 20 g/ha): 40; Herbicidal efficacy against ALOMY ([2]; 80 g/ha): 90; herbicidal activity ALOMY [2, 21]: 100%; Herbicidal efficacy against AVEFA ([4]; 20 g/ha): 50; Herbicidal efficacy against CYPES ([5]; 20 g/ha): 50; herbicidal activity CYPES [5, 21]: 90%; Herbicidal efficacy against MATIN ([6]; dosage 20 g/ha): 80; Herbicidal efficacy against SETVI ([8]; 20 g/ha): 90; Herbicidal efficacy against VIOTR ([10]; dosage 20 g/ha): 100; Herbicidal efficacy against ALOMY ([12]; 5 g/ha): 60; Herbicidal efficacy against AVEFA ([14]; 5 g/ha): 50; herbicidal activity AVEFA ([14]; 80 g/ha, Table C): 100%; Herbicidal efficacy against SETVI ([16]; 5 g/ha): 80; Herbicidal efficacy against STEME ([17]; 5 g/ha): 70; Herbicidal efficacy against VIOTR ([18]; 5 g/ha): 100; Herbicidal efficacy against ECHCG ([20]; 20 g/ha): 50; Herbicidal efficacy against ECHCG ([20]; 80 g/ha): 100

Reference: patent US20230183193A1, “4-DIFLUOROMETHYL BENZOYL AMIDES WITH HERBICIDAL ACTION” (BAYER CROPSCIENCE AKTIENGESELLSCHAFT, priority 2017, published 2023)
